The source of these data is patent US20040087651A1, “Monoterpene as a chemopreventive agent for regression of mammalian nervous system cell tumors, use of monoterpene for causing regression and inhibition of nervous system cell tumors, and method for administration of monoterpene perillyl alcohol” (priority 2001, published 2004).

One data set relates to human glioma A 172 cells. Nature of the data set: Cellular Proliferation Assay (MTT). Format: cell-based. How it is done: (§1) a—Cell Culture: Human malignant gliomas U 87 and A 172 cells were obtained from the American Type Culture Collection (ATCC), and grown as monolayers on the at 37° C., in Dulbecco's Modified Eagle Medium supplemented with 0.2 mM nonessential amino acids, 10% (v/v) fetal calf serum, penicillin (100 UI/mL), streptomycin ([…]) and amphotericin B (Fungizone, […]). For subcultures, confluent monolayers were gently washed with Dulbecco's phosphate—buffered saline (PBS, pH 7.2), and after a short exposure to trypsin, the cells were transferred to a new bottle containing complete growth media.
(§2) Cellular Proliferation Assay: the target cells (human glioma U 87 and A 172) were cultivated in plates of 96 wells at a concentration of 5.0×10^5 cells by well. After the cellular adherence the cells were placed in multiple POH dilutions, in triplicates, having as positive control cells growing with detergent Tween 20. The negative control were cells growing without any additive. Concentrations varying from 30%, 3%, 0.03%, 0.003%, 0.0003% (v/v) were applied and after 24 hours of incubation 1.0 mg of hydrogen acceptor 3 (4,5 dimethylthiazol-2yi)-2-5 diphenyltetrazolium bromide (MTT) solution was added in each well, and the culture was incubated for additional 3 hours. […] An ELISA reader with 490 nm filter was used to read the results.

The next data set has as its system human glioma U 87 cells. Put plainly: Cellular Proliferation Assay (MTT). Type of data set: cell-based. The protocol: as §1, §2
A further data set relates to U 87 cells. Put plainly: Studies of cell morphology. Format: cell-based, human. The conditions noted are these: POH 0,3%. How it is done:
(§3) Studies of cell morphology:_A 172 and U 87 cells were cultivated in plates of 6 wells. After 24 hours, perillyl alcohol was added to a final concentration of 0.3% (v/v). Monolayers of cells treated with POH were photographed by an optic microscope inverted NIKON TMS, to register morphological changes induced by the treatment. All studies of cell morphology were performed at least three times to ensure accurate interpretation.

The next data set relates to A 172 cells. Put plainly: Studies of cell morphology. Format: cell-based, human. Conditions: POH 0,3%. How it is done:
as §3

The test system of data set [1] is rats. Conditions: rat, in vivo.
A further data set deals with glial cell C6. Put plainly: Effect on glial cell C6 growth. Format: cell-based, rats. Conditions: various concentrations (FIG. 2).
In the next data set the test system is U 87 glial cells. Nature of the data set: Chorioallantoic Membrane (CAM) Assay, anti-metastatic activity. The conditions noted are these: U 87 cells exposed to POH 0,3% to 0,03% for 2 hours prior to inoculation in chick embryo chorioallantoic membrane. Type of data set: in vivo, human. The protocol:
(§4) After determination of cell concentration applying a Neubauer Chamber, 2×10^6 cells were incubated for 2 hours at 37° C., in D-MEM medium containing concentrations varying from […] or 3% of perillyl alcohol (Sigma), prior to inoculation on CAM.
(§5) b—Chorioallantoic Membrane (CAM) Assay: seven days old fertilized specific pathogen free chick eggs were used in this study. By transillumination in a dark chamber, the egg air camera was marked on the eggshell. The following procedures were done under aseptic conditions, in the laminar chamber. An opening was made in the upper part and another in the lateral part of the eggshell, and the air camera was mechanically displaced to the upper side by applying negative pressure at the lateral opening. Both openings were sealed. In the upper part of the egg, a small window was made. On the upper CAM, the cells were inoculated, with a sterile pipette. Eggs 1, 2 and 3 received 2×10^6 cells previously treated with POH (0.03, 0.3 and 3%, respectively) diluted D-MEM medium. Egg 4 received 2×10^6 untreated cells in D-MEM medium. Egg 5 was used as negative control (no cells inoculated). The windows were sealed and the eggs were kept at 37° C. and 60% humidity, in the horizontal position, without agitation, for seven days
(§6) Opening of the eggs. […]

The subject of another data set is A 172 glial cells. The data set is described as above. The conditions noted are these: A 172 cells exposed to POH 0,3% to 0,03% for 2 hours prior to inoculation in chick embryo chorioallantoic membrane. Type of data set: in vivo, human. How it is done:
as §4, §5, §6

The test system of data set [2] is rats. Conditions: perillyl alcohol diet; cited from earlier work.
The next data set has as its system glial cell lines. Put plainly: Inhibition of protein expression in glial cell lines. Type of data set: cell-based. The conditions noted are these: POH treatment in glial cell lines (FIG. 10: A 172).

Take `C=C(C)[C@@H]1CC=C(CO)CC1` [perillyl alcohol, p-metha, 1,7-diene-6-ol or 4-isopropenyl-cyclohexanecarbinol]: the “proliferation of glioma cell lines” value in the data set on human glioma A 172 cells (POH 30%, 3%, 0,3% and 0,03%, preliminary in vitro studies) was “inhibits the proliferation”; with human glioma U 87 cells (U 87, POH 30%, 3%, 0,3% and 0,03%, preliminary in vitro studies) it was “inhibits the proliferation”. In addition, the cell growth result with human glioma A 172 cells (various concentrations (FIG. 4)) was “significantly inhibited cell growth in a dose dependent manner”; in the data set with human glioma U 87 cells (U87, various concentrations (FIG. 3)), “significantly inhibited cell growth in a dose dependent manner”; in the data set with glial cell C6, “significantly inhibited cell growth in a dose dependent manner”. Also, the cell morphology result in the data set on U 87 cells is “changes in morphology, indicative of cellular differentiation”; with A 172 cells it was “changes in morphology, indicative of cellular differentiation”. For the same molecule, the “toxicity in tissues of lung, liver, and brain” value with rats [1] is “no toxicity”. For the same molecule, the anti-metastatic activity result in the data set on U 87 glial cells and with A 172 glial cells was “anti metastatic activity” throughout. The maximum dose tolerated in the data set with rats [2] was 2,5%. For the same molecule, the protein expression result in the data set on glial cell lines is “inhibition protein expression”.
